Key:
[1] = biological target: Protease (Human immunodeficiency virus 1) (UniProt Q9YQ12); assay: Inhibition of HIV1 protease at 50 uM relative to control
Protease = Protease (Human immunodeficiency virus 1, UniProt Q9YQ12); assay: Inhibition of HIV1 protease
[2] = biological target: Human immunodeficiency virus type 1 reverse transcriptase (Human immunodeficiency virus 1) (UniProt Q72547); assay: Inhibition of HIV1 reverse transcriptase at 50 uM relative to control
[3] = biological target: Human immunodeficiency virus type 1 reverse transcriptase (Human immunodeficiency virus 1, UniProt Q72547); assay: Inhibition of HIV1 reverse transcriptase

Protease, sequence (Q9YQ12 whole entry): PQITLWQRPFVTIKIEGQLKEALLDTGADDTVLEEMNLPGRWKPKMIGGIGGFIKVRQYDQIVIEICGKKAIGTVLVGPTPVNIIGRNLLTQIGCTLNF
Protease (Human immunodeficiency virus 1), sequence (Q9YQ12 as listed by the source): as the sequence (Q9YQ12 whole entry) above

| inhibition [1] [%] | IC50 (Protease) [µM] | inhibition [2] [%] | IC50 [3] [µM] | SMILES |
| --- | --- | --- | --- | --- |
| 64 | 21.6 | 29 | 106 | COc1cccc2cc(CNCc3cn([C@H]4C[C@H](n5cc(C)c(=O)[nH]c5=O)O[C@@H]4CO)nn3)c(=O)oc12 |
| 61 | 27.1 | 92 | 5.59 | Cc1cn([C@H]2C[C@H](n3cc(CNCc4cc5ccccc5oc4=O)nn3)[C@@H](CO)O2)c(=O)[nH]c1=O |
| 57 | 28.9 | 94 | 6.1 | Cc1cn([C@H]2C[C@H](n3cc(CNCc4cc5cc(Br)ccc5oc4=O)nn3)[C@@H](CO)O2)c(=O)[nH]c1=O |
| 56 | 24.8 | 24 | 102 | Cc1cn([C@H]2C[C@H](n3cc(CNCc4cc5cc(Cl)ccc5oc4=O)nn3)[C@@H](CO)O2)c(=O)[nH]c1=O |

The remaining lines, values behind:

| SMILES | inhibition [1] [%] | IC50 (Protease) [µM] | inhibition [2] [%] | IC50 [3] [µM] |
| --- | --- | --- | --- | --- |
| CCOc1cccc2cc(CN(Cc3ccccc3)C(=O)CNCc3cn([C@H]4C[C@H](n5cc(C)c(=O)[nH]c5=O)O[C@@H]4CO)nn3)c(=O)oc12 | 58 | 27.3 | 97 | 2.86 |
| Cc1cn([C@H]2C[C@H](n3cc(CNCC(=O)N(Cc4ccccc4)Cc4cc5cc(Br)ccc5oc4=O)nn3)[C@@H](CO)O2)c(=O)[nH]c1=O | 52 | 32 | 94 | 4.24 |
| CC(C)c1nc(CN(C)C(=O)N[C@H](C(=O)N[C@@H](Cc2ccccc2)C[C@H](O)[C@H](Cc2ccccc2)NC(=O)OCc2cncs2)C(C)C)cs1 | 72 | – | – | – |
| COc1cccc2cc(CN(Cc3ccccc3)C(=O)CNCc3cn([C@H]4C[C@H](n5cc(C)c(=O)[nH]c5=O)O[C@@H]4CO)nn3)c(=O)oc12 | 60 | 22.7 | 97 | 2.88 |
| Cc1cn([C@H]2C[C@H](n3cc(CNCC(=O)N(Cc4ccccc4)Cc4cc5cc(Cl)ccc5oc4=O)nn3)[C@@H](CO)O2)c(=O)[nH]c1=O | 58 | 29.5 | 99 | 3.69 |
| Cc1cn([C@H]2C[C@H](n3cc(CNCC(=O)N(Cc4ccccc4)Cc4cc5ccccc5oc4=O)nn3)[C@@H](CO)O2)c(=O)[nH]c1=O | 52 | 35.1 | 96 | 3.4 |
| CCOc1cccc2cc(CNCc3cn([C@H]4C[C@H](n5cc(C)c(=O)[nH]c5=O)O[C@@H]4CO)nn3)c(=O)oc12 | 62 | 23.3 | 21 | 114 |

— ChEMBL document CHEMBL2346501, “Synthesis and evaluation of coumarin derivatives as potential dual-action HIV-1 protease and reverse transcriptase inhibitors” (Bioorg Med Chem, 2013)
